Measurements as given in patent US11207371B2, “Composition for improving or preventing nonalcoholic fatty liver” (KOHJIN LIFE SCIENCES CO., LTD., priority 2015, dated 2021).

How the values were obtained:
[1] = tested on: Mice (C57/B6J, 8 weeks old male) fed with high-fat food
Excerpt: Mice (C57/B6J, 8 weeks old male) were divided into 4 groups (5 animals each), and the first group (DB) was freely fed with ordinary food (Certified Diet “MF” manufactured by Oriental Yeast Co., ltd.). The second group (HFD) was freely fed with high-fat food (High Fat Diet 32, manufactured by CLEA Japan, Inc.), […].
When the mouse was 20 weeks old, the body weight, the liver weight, the serum aspartate aminotransferase (AST), the alanine aminotransferase (ALT), the serum triglyceride (TG), the free fatty acid value (FFA) and the total cholesterol value (T-cho) were measured.

[2] = tested on: subjects who had NAFLD in 31 IU/L or more of ALT; details: Case IDs 1 to 9 (group affected); at least one week after initiation; glutathione 300 mg per day orally

SMILES: N[C@@H](CCC(=O)N[C@@H](CS)C(=O)NCC(=O)O)C(=O)O [glutathione]
- serum AST ([1]; HFD6 (6 mg/kg/day) and HFD60 (60 mg/kg/day) groups in comparison to the HFD group, 20 weeks old, concentration dependent, FIG. 5A): significant decrease
- serum ALT ([1]; HFD6 (6 mg/kg/day) and HFD60 (60 mg/kg/day) groups in comparison to the HFD group, 20 weeks old, concentration dependent, FIG. 5B): significant decrease
- serum TG (triglyceride value) ([1]; HFD6 (6 mg/kg/day) and HFD60 (60 mg/kg/day) groups in comparison to the HFD group, 20 weeks old, concentration dependent, FIG. 6A): significant decrease
- serum FFA (free fatty acid value) ([1]; HFD6 (6 mg/kg/day) and HFD60 (60 mg/kg/day) groups in comparison to the HFD group, 20 weeks old, concentration dependent, FIG. 6B): significant decrease
- serum T-cho (total cholesterol value) ([1]; HFD6 (6 mg/kg/day) and HFD60 (60 mg/kg/day) groups in comparison to the HFD group, 20 weeks old, concentration dependent, FIG. 6C): significant decrease
- consumption amount of feed ([1]; all of the groups (DB, HFD, HFD6, HFD60), FIG. 3A): no significant difference
- consumption amount of water ([1]; all of the groups (DB, HFD, HFD6, HFD60), FIG. 3B): no significant difference
- liver weight ([1]; high-fat food mice, glutathione 6 and 60 mg/kg/day in water, 20 weeks old, FIG. 4A): decreased dependently on the concentration
- ratio of liver weight/body weight ([1]; high-fat food mice, glutathione 6 and 60 mg/kg/day in water, 20 weeks old, FIG. 4B): decrease of the body weight ratio was also recognized
- deposition of fat on the liver by high-fat food ([1]; high-fat food mice, glutathione 6 and 60 mg/kg/day in water, concluded from liver weight): suppressed
- body weight ([1]; high-fat food mice, glutathione 6 or 60 mg/kg/day in water, FIGS. 1 and 2): decrease of the body weight was recognized
- improvement of ALT after the administration versus before initiation (0 wk) [2]: ≥ 20%
